# Test results as given in US20210369720A1, “SYNERGISTIC COMPOSITION HAVING NEUROPROTECTIVE PROPERTIES AND METHODS OF USE THEREOF” (Rutgers, The State University of New Jersey, priority 2018, published 2021).
# Columns and labels:
# [1] = test system: SH-SY5Y cells; experiment: Cytotoxicity of α-Syn PFF by propidium iodide (PI) exclusion in SH-SY5Y cells; assay type: cell-based, Human; conditions: SH-SY5Y cells challenged with mouse α-Syn PFF for seven days; vs untreated α-Syn PFF-challenged cells (2.5 fold increase of PI positive cells)
# [2] = test system: GFAP; experiment: Immunohistochemical staining of GFAP in the cortex, Syn^Tg mice; assay type: in vivo; conditions: EHT 12 mg/kg/day and/or caffeine 50 mg/kg/day until six months of age
# Excerpt: Neuroinflammation is one of the neuropathological features of PD and models of α-synucleinopathy including Syn^Tg mice (Lee K W, et al. (2011) Enhanced phosphatase activity attenuates alpha-synucleinopathy in a mouse model. J Neurosci 31(19):6963-6971).
# Thy1-α-synuclein transgenic mice (Syn^Tg) on BDF1 background overexpressing human wild-type α-synuclein under the control of the Thy1 promoter were maintained by mating heterozygous transgenic females with WT BDF1 males (Rockenstein E, et al. (2002) Differential neuropathological alterations in transgenic mice expressing alpha-synuclein from the platelet-derived growth factor and Thy-1 promoters. J Neurosci Res 68(5):568-578). BDF1 mice (mixed C57BL/6-DBA/2) were generated every three months by mating female C57BL/6 (The Jackson Laboratory) and male DBA/2 mice (Charles River). Experiments were performed with male transgenic mice and their WT littermates. […] Wild-type littermates received regular water and control chow. […] Mice were weighed and their food and water intake was quantified weekly. […]
# Vectastain elite ABC kit (Vector Laboratories, Burlingame, Calif.) and 3,3′-diaminobenzidine (Sigma-Aldrich) were used for amplifying and color development. […] For other stains, the whole microscopic field was analyzed. For p-α-Syn stains in the cortex, four matching regions in each of two sections per animal were counted.
# [3] = test system: Syn^Tg mice; experiment: Morris Water Maze, Syn^Tg mice; assay type: in vivo; conditions: EHT 12 mg/kg/day in chow and/or caffeine 50 mg/kg/day in drinking water from weaning until six months of age, vs untreated Syn^Tg mice
# Excerpt: (§1) Thy1-α-synuclein transgenic mice (Syn^Tg) on BDF1 background overexpressing human wild-type α-synuclein under the control of the Thy1 promoter were maintained by mating heterozygous transgenic females with WT BDF1 males (Rockenstein E, et al. (2002) Differential neuropathological alterations in transgenic mice expressing alpha-synuclein from the platelet-derived growth factor and Thy-1 promoters. J Neurosci Res 68(5):568-578). BDF1 mice (mixed C57BL/6-DBA/2) were generated every three months by mating female C57BL/6 (The Jackson Laboratory) and male DBA/2 mice (Charles River). Experiments were performed with male transgenic mice and their WT littermates. […] Wild-type littermates received regular water and control chow. […] At two months of age, mice were inoculated with α-Syn PFF unilaterally in the striatum. These treatments continued throughout the experiment until animals were sacrificed. Mice were weighed and their food and water intake was quantified weekly. Animals were housed 2-5/cage in an AAALAC approved facility in a temperature- and humidity-controlled environment under a 12-hour light/dark cycle and were maintained on a diet of lab chow and water ad libitum. […]
# [4] = test system: α-Syn PFF inoculated WT mice; experiment: Wire Hang test, α-Syn PFF inoculated WT mice; assay type: in vivo; conditions: EHT 12 mg/kg/day in diet and/or caffeine 50 mg/kg/day in drinking water from weaning, 6 months post-inoculation
# Excerpt: as §1
# [5] = test system: α-Syn PFF inoculated WT mice; experiment: Rotarod, α-Syn PFF inoculated WT mice; assay type: in vivo; conditions: EHT 12 mg/kg/day in diet and/or caffeine 50 mg/kg/day in drinking water from weaning, 6 months post-inoculation
# Excerpt: as §1
# [6] = molecular target: T1, PP2A methylesterase (PME-1) (Homo sapiens, UniProt Q9Y570); conditions: cited from earlier work
# T1 sequence (Q9Y570 1-386): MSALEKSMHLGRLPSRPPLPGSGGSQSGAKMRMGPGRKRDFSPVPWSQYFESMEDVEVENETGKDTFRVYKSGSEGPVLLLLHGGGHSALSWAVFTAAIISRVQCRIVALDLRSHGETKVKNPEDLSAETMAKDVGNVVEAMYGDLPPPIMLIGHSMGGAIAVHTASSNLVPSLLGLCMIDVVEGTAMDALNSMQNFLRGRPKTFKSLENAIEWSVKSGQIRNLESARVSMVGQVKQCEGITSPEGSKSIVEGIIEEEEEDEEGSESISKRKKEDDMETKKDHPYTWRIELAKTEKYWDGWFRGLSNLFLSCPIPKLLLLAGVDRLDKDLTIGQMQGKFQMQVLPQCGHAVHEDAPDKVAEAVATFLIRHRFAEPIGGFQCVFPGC
# [7] = test system: Syn^Tg mice; experiment: Nesting behavior, Syn^Tg mice; assay type: in vivo; conditions: EHT 12 mg/kg/day in chow and/or caffeine 50 mg/kg/day in drinking water from weaning until six months of age, vs untreated Syn^Tg mice
# Excerpt: as §1
structure (smiles),measurement,setting,value
"CCCCCCCCCCCCCCCCCCCC(=O)NCCc1c[nH]c2ccc(O)cc12 [EHT, eicosanoyl-5-hydroxytryptamide]","cytotoxicity of α-Syn PFF, number of PI positive cells (cell viability)",[1],modestly protected
same,astrocytic proliferation (GFAP) in the cortex,[2],partially but insignificantly attenuated
same,performance on the Morris Water Maze,[3],did not improve performance
same,performance on the wire hang test,[4],improved performance
same,performance on the rotarod,[5],improved performance
same,inhibition of the activity of the PP2A methylesterase (PME-1),[6],inhibit the activity
same,nesting behavior,[7],did not improve performance
